Results as given in ChEMBL document CHEMBL4028904, “Discovery of a Novel Series of Tankyrase Inhibitors by a Hybridization Approach” (J Med Chem, 2017).

Legend:
[1] = biological target: T1, Poly [ADP-ribose] polymerase tankyrase-2 (Homo sapiens, UniProt Q9H2K2); assay: Inhibition of TNKS2 (unknown origin) expressed in HEK293 cells assessed as inhibition of Wnt3a-induced Wnt/beta-catenin signaling after 24 hrs by luciferase reporter gene assay; assay type: cell-based
T1 sequence (Q9H2K2 whole entry): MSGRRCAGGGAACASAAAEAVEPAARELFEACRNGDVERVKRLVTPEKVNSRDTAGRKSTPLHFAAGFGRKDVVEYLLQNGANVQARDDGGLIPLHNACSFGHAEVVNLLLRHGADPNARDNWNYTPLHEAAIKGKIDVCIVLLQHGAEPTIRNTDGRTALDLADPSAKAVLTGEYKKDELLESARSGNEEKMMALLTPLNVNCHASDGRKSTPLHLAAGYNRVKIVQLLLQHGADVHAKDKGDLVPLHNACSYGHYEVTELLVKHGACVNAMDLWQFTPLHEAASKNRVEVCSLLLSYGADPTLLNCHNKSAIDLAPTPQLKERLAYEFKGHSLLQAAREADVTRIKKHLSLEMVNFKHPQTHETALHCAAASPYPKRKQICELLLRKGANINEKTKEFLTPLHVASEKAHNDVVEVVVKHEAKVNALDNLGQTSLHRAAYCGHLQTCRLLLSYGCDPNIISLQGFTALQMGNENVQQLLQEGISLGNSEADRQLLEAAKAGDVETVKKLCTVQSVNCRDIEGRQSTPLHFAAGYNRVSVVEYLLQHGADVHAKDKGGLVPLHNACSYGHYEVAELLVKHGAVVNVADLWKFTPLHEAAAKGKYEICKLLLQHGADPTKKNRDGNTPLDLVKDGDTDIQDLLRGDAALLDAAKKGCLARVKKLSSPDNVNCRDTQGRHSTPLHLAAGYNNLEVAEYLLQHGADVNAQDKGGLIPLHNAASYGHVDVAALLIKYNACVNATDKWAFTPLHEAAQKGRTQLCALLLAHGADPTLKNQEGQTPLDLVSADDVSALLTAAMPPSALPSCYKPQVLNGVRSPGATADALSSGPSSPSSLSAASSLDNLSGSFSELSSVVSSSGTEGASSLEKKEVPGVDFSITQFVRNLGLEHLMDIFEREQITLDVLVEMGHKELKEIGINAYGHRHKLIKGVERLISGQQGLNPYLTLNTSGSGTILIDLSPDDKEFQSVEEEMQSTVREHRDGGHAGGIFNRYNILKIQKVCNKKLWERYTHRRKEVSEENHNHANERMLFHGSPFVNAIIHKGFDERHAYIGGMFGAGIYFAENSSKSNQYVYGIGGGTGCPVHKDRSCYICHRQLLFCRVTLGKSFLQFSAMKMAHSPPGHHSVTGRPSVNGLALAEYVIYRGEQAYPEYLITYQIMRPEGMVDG

[2] = biological target: T1, Poly [ADP-ribose] polymerase tankyrase-2; assay: Inhibition of TNKS2 (unknown origin) transfected in human SW480 cells assessed as inhibition of Wnt3a-induced Wnt/beta-catenin signaling after 48 hrs by ST-luciferase reporter gene assay; assay type: cell-based
[3] = biological target: T1, Poly [ADP-ribose] polymerase tankyrase-2; assay: Inhibition of human TNKS2 (873 to 1162 residues) assessed as reduction in NAD+ consumption by fluorescence assay

IC50 [1] | IC50 [2] | IC50 [3] | SMILES
120 nM | 1490 nM | 330 nM | N#Cc1ccc2c(c1)[nH]c(=O)n2[C@H]1CC[C@H](c2nnc(-c3ccncn3)n2-c2ccccc2Cl)CC1
> 10000 nM | – | 340 nM | N#Cc1ccc2c(c1)[nH]c(=O)n2-c1ccc(-c2nnc(-c3ccncn3)n2-c2ccccc2Cl)cc1
